Results as given in PMC5510868 (PLoS ONE, 2017).
“Also recorded” adds a separate entry of the source.

Key:
[1] = Dose-adjusted serum antidepressant concentrations across pregnancy compared to the women's own baseline (routine TDM, LC-MS, linear mixed model); type: in vivo, human; details: for Change of serum concentration in pregnancy compared to baseline (in words): fluoxetine and venlafaxine = active moiety; for Serum concentration in third trimester lower than baseline (reduction): mid third trimester (gestational week 34) vs baseline, value given as size of the reduction
Source text: After obtaining approval from the Regional Committee for Medical and Health Research Ethics in Mid Norway, the Norwegian Centre for Research Data (Data Protection Official), the Norwegian Directorate of Health and the Medical Birth Registry of Norway (MBRN) publication council, serum concentration data for antidepressants were collected from the two largest TDM services for psychotropic drugs in Norway (i.e. Department of Clinical Pharmacology at St. Olav University Hospital in Trondheim, and Center for Psychopharmacology at Diakonhjemmet Hospital in Oslo). […] The antidepressant TDM data contain serum concentration measurements taken in a naturalistic setting from psychiatry inpatients and outpatients. In addition to measured serum concentrations, the databases contain information obtained from the requisition forms, such as the prescribed antidepressant dose, time of last drug intake, time of blood sampling, and types and doses of concomitant drugs.
First, a combined laboratory TDM file was created, containing all serum concentration measurements (for any drug) in the period October 1999 –December 2011 for all women of reproductive age (i.e. born 1950–2000). […] Using the unique 11-digit identification number assigned to all individuals living in Norway, the MBRN could identify all pregnant women in the TDM data set. […] For the current study we retrieved the following information: the personal identification number, the drug analysed, the measured drug serum concentration, time of last dose, time of sampling, drug dose, concomitant drug use, other clinical information, name of the responsible physician, gestational week at the time of sampling (calculated from the sampling date and the pregnancy onset date as determined by obstetric ultrasound if available, or by last menstruation), and date of delivery.
If the requisition form lacked information on drug dose the authors contacted the responsible physician, who attempted to obtain this information from the medical record. If we were unable to retrieve this information, the analysis was excluded.
Having identified the pregnant women and their individual pregnancy periods in the extracted data file, we used the original TDM databases to retrieve serum concentration measurements before and after pregnancy from the same women, to serve as baseline observations for each of the included subjects. […] These analyses were not used in the statistical model, only for visual comparison. The remaining 420 analyses were used for the statistical comparisons.
Since multiple measurements were available from the same patient a linear mixed model was used. […] Baseline measurements were set to gestational week 0 in the model. Then, the effect of gestational week on concentration compared to baseline could be estimated for each drug.
Data are presented as means with 95% confidence intervals.

[2] = cited from earlier work
[3] = Serum metabolite concentrations and parent compound/metabolite ratios at baseline and in the third trimester (TDM, linear mixed model); details: for Change from baseline conc., Estimate (parent compound or metabolite) / Parent compound / metabolite ratio (PMR), change from baseline, estimate: baseline to third trimester (gestational week 34); for Baseline conc., Estimate (parent compound or metabolite) / Parent compound / metabolite ratio (PMR), baseline estimate: day 0 (non-pregnant); for Baseline conc., Estimate (parent compound or metabolite) / Loge serum concentration, Intercept estimate (parent compound or metabolite): only analyses with metabolite data; for Baseline conc., Estimate (parent compound or metabolite): dose-adjusted to DDD; for Parent compound / metabolite ratio (PMR), third trimester estimate: gestational week 34; for Loge PMR, Intercept estimate / Loge PMR, Change per gestational week estimate: loge-transformed parent compound/metabolite ratio; for Loge PMR, Intercept estimate: baseline; for Loge PMR, Change per gestational week estimate / Loge serum concentration, Change per gestational week estimate (parent compound or metabolite): per week of pregnancy; for Loge serum concentration, Intercept estimate (parent compound or metabolite) / Loge serum concentration, Change per gestational week estimate (parent compound or metabolite): loge-transformed; for Loge serum concentration, Intercept estimate (parent compound or metabolite): baseline (day 0 of pregnancy); for Change of parent compound or metabolite serum concentration in pregnancy (in words): analyses with metabolite data (Table 3); for Parent compound / metabolite ratio in mid third trimester lower than baseline: value printed as size of the decline
Procedure: Quantification of the drug concentrations was performed with liquid chromatography-mass spectrometry/tandem mass spectrometry (LC-MS/LC-MS/MS). […] In brief, the drugs were extracted from serum by liquid-liquid extraction, using a mixture of hexane, acetonitrile and/or butanol, or dichloromethane and isopropanol. Thereafter, the analytes were separated on C18 columns using methanol, acetonitrile, formic acid or ammonium acetate as mobile phases, and quantified on LC-MS or LC-MS-MS systems. Calibration curves were constructed for each assay with drug-free human serum by the addition of varying concentrations of the antidepressants and their respective metabolites.
Serum concentrations in ng/mL were divided by the daily dose used by the person at the time of sampling, providing a serum concentration/dose ratio, and then multiplied by the defined daily dose (DDD), which is the assumed average maintenance dose per day for that drug used for its main indication in adults [28]. […] All concentrations presented and discussed in this article, including tables and figures, are dose-adjusted to the DDD of the drug.
For drugs where both the parent drug and the metabolite were measured, parent drug/metabolite concentration ratios during pregnancy were compared to baseline values as described above; ratios were loge-transformed and fitted into a linear mixed model, estimating the baseline ratios and the effect of each gestational week.
All model parameters, including variance components, were estimated by the method of maximum likelihood using STATA 13 command “mixed”. […] P values less than 0.05 were considered statistically significant.

Row | Compound | Change of serum concentration in pregnancy compared to baseline (in words) ([1]; dose-adjusted) | Change from baseline conc., Estimate (parent compound or metabolite) [3] | Parent compound / metabolite ratio (PMR), change from baseline, estimate [3] | Baseline conc., Estimate (parent compound or metabolite) [3] [ng/mL] | Parent compound / metabolite ratio (PMR), baseline estimate [3] | Parent compound / metabolite ratio (PMR), third trimester estimate [3] | Loge PMR, Intercept estimate [3] | Loge PMR, Change per gestational week estimate [3] | Loge serum concentration, Intercept estimate (parent compound or metabolite) [3] | Loge serum concentration, Change per gestational week estimate (parent compound or metabolite) [3] | Change of parent compound or metabolite serum concentration in pregnancy (in words) [3] | other results
1 | CN(C)CCCC1(c2ccc(F)cc2)OCc2cc(C#N)ccc21 (stereo not drawn) [Citalopram] | remain largely unchanged | -39% | -13% | 32.3 | 2.6 | 2.3 | 0.973 | -0.004 | 3.475 | -0.015 |  | Serum concentration in third trimester lower than baseline (reduction) [1]: 24%; Third trimester concentrations lower than baseline values ([2]; 11 pregnancies, ref Heikkinen et al. [13]): 42%; Third trimester concentrations lower than baseline ([2]; two pregnancies, ref Sit et al. [19]): 26%; Change of parent compound / metabolite ratio in pregnancy (in words) ([3]; third trimester vs baseline): did not reach statistical significance
2 | CNCCCC1(c2ccc(F)cc2)OCc2cc(C#N)ccc21 (stereo not drawn) [Desmethylcitalopram] |  | -33% |  | 12.6 |  |  |  |  | 2.534 | -0.012 |  | 
3 | N[C@H]1CC[C@@H](c2ccc(Cl)c(Cl)c2)c2ccccc21 [Desmethylsertraline] |  | +120% |  | 18.4 |  |  |  |  | 2.914 | 0.023 | increasing levels | 
4 | CN(C)CCC[C@@]1(c2ccc(F)cc2)OCc2cc(C#N)ccc21 [Escitalopram] | did not change significantly; also recorded: not statistically significant; also recorded: remain largely unchanged; also recorded: close to zero | +24% | +40% | 8.4 | 1.8 | 2.5 | 0.581 | 0.010 | 2.129 | 0.006 |  | concentration at 4 gestational week ([1]; female, human, serum, 10 mg/day, one analysis in week 4, dose-adjusted, read-out: Observed serum concentration, outlier not shown in Fig 2): 36 ng/mL; concentration at 5 gestational week ([1]; female, human, serum, 10 mg/day, one analysis in week 5, dose-adjusted, read-out: Observed serum concentration, outlier not shown in Fig 2): 40 ng/mL; Observed serum concentration, outlier not shown in Fig 2 ([1]; one analysis in week 0 (baseline), dose-adjusted): 36 ng/mL; Change of concentrations throughout pregnancy (in words) ([2]; five pregnancies, ref Sit et al. [19]): only minor declines or no change; Parent compound / metabolite ratio (PMR), change from baseline, estimate ([3]; listed as escitalopram): 40%
5 | CNCCC(Oc1ccc(C(F)(F)F)cc1)c1ccccc1 (stereo not drawn) [Fluoxetine] | did not change significantly; also recorded: not statistically significant; also recorded: remain largely unchanged; also recorded: no major decline | -31% | -36% | 77.7 | 1.0 | 0.6 | -0.045 | -0.013 | 4.353 | -0.011 | decline | Third trimester concentrations of the active moiety lower than baseline ([2]; fluoxetine plus norfluoxetine, 11 pregnancies, ref Heikkinen et al.): 32%; Parent compound / metabolite ratio in mid third trimester lower than baseline [3]: 36%
6 | COCCCC/C(=N\OCCN)c1ccc(C(F)(F)F)cc1 [Fluvoxamine] |  |  |  |  |  |  |  |  |  |  |  | Serum concentration in pregnancy as share of pre-pregnancy levels ([1]; drop to about this share of pre-pregnancy levels): about 50%; Serum concentration in third trimester lower than baseline (reduction) [1]: 56%
7 | NCCC(Oc1ccc(C(F)(F)F)cc1)c1ccccc1 (stereo not drawn) [Norfluoxetine] |  | 0% |  | 83.7 |  |  |  |  | 4.427 | 0.000 | remain largely unchanged | 
8 | CN(C)CC(c1ccc(O)cc1)C1(O)CCCCC1 (stereo not drawn) [O-desmethylvenlafaxine] |  | -13% |  | 91.5 |  |  |  |  | 4.516 | -0.004 | did not change | Change of metabolite levels in pregnancy (in words) ([2]; prospective study of seven pregnancies): no change
9 | CNCC[C@H](Oc1ccc(C(F)(F)F)cc1)c1ccccc1 [S-fluoxetine] |  |  |  |  |  |  |  |  |  |  |  | Enantiomer concentration change in pregnancy, chiral analysis (in words) ([2]; in vivo): declined more than R-fluoxetine
10 | CN[C@H]1CC[C@@H](c2ccc(Cl)c(Cl)c2)c2ccccc21 [Sertraline] | statistically significant increase | +83% | -20% | 8.6 | 0.5 | 0.4 | -0.764 | -0.006 | 2.147 | 0.018 | increasing levels | Change of concentrations in pregnancy in previous studies (in words) ([2]; eight and six pregnancies): variable/non-significant observations; Parent compound / metabolite ratio in mid third trimester lower than baseline [3]: 20%
